Assay results: US20080058332A1, “2,4,6-Trisubstituted Pyrimidines as Phosphotidylinositol (Pi) 3-Kinase Inhibitors and Their Use in the Treatment of Cancer” (priority 2004, published 2008)

Tests used:
p110α Type Ia human PI3K = molecular target: T1, p110α Type Ia human PI3K (Homo sapiens, UniProt P42336); test: In vitro enzyme assay (AlphaScreen), inhibition of phosphorylation of PI(4,5)P2 by recombinant Type I PI3K; format: biochemical; conditions: DiC8-PI(4,5)P2 40 μM, ATP 4 μM, read-out: IC50 versus p110α Type Ia human PI3K, Test (a)
T1 construct: full length DNA of each of the p110α, p110β and p110δ Type Ia human PI3K p110 isoforms; 6-His; made in house
Description: (a) In Vitro Enzyme Assay
The assay used AlphaScreen technology (Gray et al., Analytical Biochemistry, 2003, 313: 234-245) to determine the ability of test compounds to inhibit phosphorylation by recombinant Type I PI3K enzymes of the lipid PI(4,5)P2.
DNA fragments encoding human PI3K catalytic and regulatory subunits were isolated from cDNA libraries using standard molecular biology and PCR cloning techniques. The selected DNA fragments were used to generate baculovirus expression vectors. In particular, full length DNA of each of the p110α, p110β and p110δ Type Ia human PI3K p110 isoforms (EMBL Accession Nos. HSU79143, S67334, Y10055 for p110α, p110β and p110δ respectively) were sub-cloned into a pDEST10 vector (Invitrogen Limited, Fountain drive, Paisley, UK). The vector is a Gateway-adapted version of Fastbac1 containing a 6-His epitope tag. A truncated form of Type Ib human PI3K p110γ isoform corresponding to amino acid residues 144-1102 (EMBL Accession No. X8336A) and the full length human p85α regulatory subunit (EMBL Accession No. HSP13KIN) were also sub-cloned into pFastBac1 vector containing a 6-His epitope tag. The Type Ia p110 constructs were co-expressed with the p85α regulatory subunit. Following expression in the baculovirus system using standard baculovirus expression techniques, expressed proteins were purified using the His epitope tag using standard purification techniques.
DNA corresponding to amino acids 263 to 380 of human Grp1 PH domain was isolated from a cDNA library using standard molecular biology and PCR cloning techniques. […]
Biotinylated-DiC8-PI(3,4,5)P3 (50 nM; Cell Signals Inc., Catalogue No. 107), recombinant purified GST-Grp1 PH protein (2.5 nM) and AlphaScreen Anti-GST donor and acceptor beads (100 ng; Packard Bioscience Limited, Station Road, Pangbourne, Berkshire, UK, Catalogue No. 6760603M) were added and the assay plates were left for about 5 to 20 hours at ambient temperature in the dark. The resultant signals arising from laser light excitation at 680 nm were read using a Packard AlphaQuest instrument. […]

[1] = tested on: phosphorylation of Serine 473 in Akt; test: In vitro phospho-Ser473 Akt assay in MDA-MB-468 cells; format: cell-based; conditions: Homo sapiens, 2 hours incubation, read-out: IC50, Test (b), inhibition of phosphorylation of Serine 473 in Akt
Procedure: (b) In Vitro phospho-Ser473 Akt Assay
This assay determines the ability of test compounds to inhibit phosphorylation of Serine 473 in Akt as assessed using Acumen Explorer technology (Acumen Bioscience Limited), a plate reader that can be used to rapidly quantitate features of images generated by laser-scanning.
A MDA-MB-468 human breast adenocarcinoma cell line (LGC Promochem, Teddington, Middlesex, UK, Catalogue No. HTB-132) was routinely maintained at 37° C. with 5% CO2 up to a confluency of 70-90% in Dulbecco's modified Eagle's growth medium (DMEM; Invitrogen Limited, Paisley, UK Catalogue No. 41966-029) containing 10% heat-inactivated foetal calf serum (FCS; Sigma, Poole, Dorset, UK, Catalogue No. F0392) and 1% L-glutamine (Gibco, Catalogue No. 25030-024).
For the assay, the cells were detached from the culture flask using ‘Accutase’ (Innovative Cell Technologies Inc., San Diego, Calif., USA; Catalogue No. AT104) using standard tissue culture methods and resuspended in media to give 1.7×10^5 cells per ml. […]
All subsequent aspiration and wash steps were carried out using a Tecan 96 well plate washer (aspiration speed 10 mm/sec). […] An aliquot of PBS (50 μl) was added to each well and the plates were sealed with black plate sealers and the fluorescence signal was detected and analysed. […]

[2] = tested on: MDA-MB-468 human breast adenocarcinoma cells; test: In vitro MDA-MB-468 human breast adenocarcinoma proliferation assay; format: cell-based; conditions: 48 hours incubation, BrdU incorporation, read-out: IC50, Test (c), inhibition of MDA-MB-468 cell growth
Description: (c) In Vitro MDA-MB-468 Human Breast Adenocarcinoma Proliferation Assay
This assay determines the ability of test compounds to inhibit cell proliferation as assessed using Cellomics Arrayscan technology. A MDA-MB-468 human breast adenocarcinoma cell line (LGC Promochem, Catalogue No. HTB-132) was routinely maintained as described in Biological Assay (b) hereinbefore.
For the proliferation assay, the cells were detached from the culture flask using Accutase and seeded into the inner 60 wells of a black Packard 96 well plate at a density of 8000 cells per well in 100 μl of complete growth media. The outer wells contained 100 μl of sterile PBS. The cells were incubated overnight at 37° C. with 5% CO2 to allow them to adhere.
On day 2, the cells were treated with test compounds and incubated for 48 hours at 37° C. with 5% CO2. […]
BrdU incorporation was detected by incubation for 1 hour at ambient temperature with mouse anti-BrdU antibody (50 μl; Caltag, Burlingame, Calif., US; Catalogue No. MD5200) that was diluted 1:40 in PBS containing 1% BSA and 0.05% Tween-20. […] Subsequently, PBS (100 μl) was added to each well and the plates were analysed using a Cellomics array scan to assess total cell number and number of BrdU positive cells.
Fluorescence dose response data obtained with each compound were analysed and the degree of inhibition of MDA-MB-468 cell growth was expressed as an IC50 value.

T1 sequence (P42336 whole entry, canonical isoform): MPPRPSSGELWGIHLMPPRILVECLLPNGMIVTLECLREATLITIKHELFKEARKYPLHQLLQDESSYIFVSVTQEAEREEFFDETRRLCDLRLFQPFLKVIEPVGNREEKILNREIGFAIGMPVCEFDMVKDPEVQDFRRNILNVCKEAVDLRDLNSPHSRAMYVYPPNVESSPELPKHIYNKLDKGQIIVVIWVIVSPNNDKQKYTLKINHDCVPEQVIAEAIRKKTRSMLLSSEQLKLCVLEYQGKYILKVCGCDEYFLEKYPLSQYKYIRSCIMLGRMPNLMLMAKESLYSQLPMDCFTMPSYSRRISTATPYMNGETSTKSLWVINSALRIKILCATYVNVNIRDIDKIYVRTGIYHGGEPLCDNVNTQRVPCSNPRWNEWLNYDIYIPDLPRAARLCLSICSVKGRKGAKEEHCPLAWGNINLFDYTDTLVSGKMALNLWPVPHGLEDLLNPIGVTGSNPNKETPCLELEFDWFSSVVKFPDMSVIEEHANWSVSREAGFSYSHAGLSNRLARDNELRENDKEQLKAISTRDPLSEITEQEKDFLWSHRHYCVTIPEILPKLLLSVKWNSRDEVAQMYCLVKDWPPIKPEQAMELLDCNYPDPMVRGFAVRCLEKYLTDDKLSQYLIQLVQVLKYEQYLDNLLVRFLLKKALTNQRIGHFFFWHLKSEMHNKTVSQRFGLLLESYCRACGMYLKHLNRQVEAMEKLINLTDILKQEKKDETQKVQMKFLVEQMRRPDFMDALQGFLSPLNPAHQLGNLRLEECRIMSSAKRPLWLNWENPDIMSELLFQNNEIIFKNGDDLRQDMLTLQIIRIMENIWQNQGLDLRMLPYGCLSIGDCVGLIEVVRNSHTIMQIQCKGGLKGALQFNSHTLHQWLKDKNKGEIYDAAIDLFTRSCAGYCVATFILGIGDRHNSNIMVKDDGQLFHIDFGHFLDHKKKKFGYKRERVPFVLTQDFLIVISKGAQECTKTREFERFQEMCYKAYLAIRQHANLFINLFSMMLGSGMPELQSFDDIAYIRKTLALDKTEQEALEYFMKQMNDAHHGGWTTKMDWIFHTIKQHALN
T1 sequence (P27986 whole entry partner, canonical isoform): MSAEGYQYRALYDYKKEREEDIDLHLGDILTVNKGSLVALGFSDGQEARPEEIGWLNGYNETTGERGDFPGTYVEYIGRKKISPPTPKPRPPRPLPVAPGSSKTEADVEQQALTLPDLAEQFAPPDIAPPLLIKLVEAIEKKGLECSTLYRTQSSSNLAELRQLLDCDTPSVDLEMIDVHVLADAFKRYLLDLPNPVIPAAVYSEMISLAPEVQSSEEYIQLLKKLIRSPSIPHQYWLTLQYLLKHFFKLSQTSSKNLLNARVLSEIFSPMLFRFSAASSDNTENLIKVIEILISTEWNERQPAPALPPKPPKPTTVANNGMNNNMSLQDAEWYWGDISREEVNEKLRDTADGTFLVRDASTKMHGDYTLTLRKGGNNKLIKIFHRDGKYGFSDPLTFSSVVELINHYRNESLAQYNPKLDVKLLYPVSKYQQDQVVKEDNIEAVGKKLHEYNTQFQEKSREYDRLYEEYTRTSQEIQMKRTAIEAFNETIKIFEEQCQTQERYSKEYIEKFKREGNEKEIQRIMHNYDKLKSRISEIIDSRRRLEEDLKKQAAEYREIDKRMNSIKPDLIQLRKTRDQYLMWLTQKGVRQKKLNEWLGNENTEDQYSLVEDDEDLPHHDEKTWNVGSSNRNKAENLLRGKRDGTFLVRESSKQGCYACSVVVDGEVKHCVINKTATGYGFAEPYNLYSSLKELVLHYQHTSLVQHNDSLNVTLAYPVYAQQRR

IC50 (p110α Type Ia human PI3K) [nM] | IC50 [1] [nM] | IC50 [2] [nM] | Structure (SMILES)
~1000 | ~1800 | ~5000 | NCc1cccc(C(=O)Nc2cccc(-c3nc(-c4cccc(CO)c4)cc(N4CCOCC4)n3)c2)c1 [Example 6(48), 2-[3-(3-aminomethylbenzamido)phenyl]-4-(3-hydroxymethylphenyl)-6-morpholinopyrimidine]
~700 | ~5100 | ~10000 | N[C@H]1CCC[C@@H](CC(=O)Nc2cccc(-c3nc(-c4cccc(CO)c4)cc(N4CCOCC4)n3)c2)C1 [Example 6(33), 2-(3-{2-[(1R,3S)-3-aminocyclohex-1-yl]acetamido]phenyl}-4-(3-hydroxymethylphenyl)-6-morpholinopyrimidine]
~1000 |  |  | O=C(Nc1cccc(-c2nc(-c3cccc(O)c3)cc(N3CCOCC3)n2)c1)C1CCNCC1 [Example 4(3), 4-(3-hydroxyphenyl)-6-morpholino-2-(3-piperidin-4-ylcarbonylaminophenyl)pyrimidine]
